Paper PMC8777805, “Interactions of Nereistoxin and Its Analogs with Vertebrate Nicotinic Acetylcholine Receptors and Molluscan ACh Binding Proteins” (Marine Drugs, 2022)
Like-named read-outs stand apart in the source and are kept apart here.

Tests used:
[1] = molecular target: T1, Aplysia californica AChBP (Aplysia californica, UniProt Q8WSF8); test: [3H]-epibatidine scintillation proximity binding assay, Ac AChBP; conditions: for IC50: inhibition of [3H]-epibatidine binding, read-out: IC50 ± SEM, Ac BP
T1 construct: made in house
Method: (§1) The AChBP proteins were expressed and purified according to Hansen et al.. Determination of compound affinity for an AChBP utilized a modification of the Scintillation Proximity Assay reported previously. Briefly, the AChBP constructs (0.5–1.0 nM final concentration of binding sites) were combined with polyvinyltoluene anti-mouse SPA scintillation beads (0.17 mg/mL final concentration, Perkin Elmer), monoclonal anti-FLAG M2 antibody from mouse 1:8000 dilution (Sigma), and 0.1 M NaPO4 buffer, pH 7.0. This cocktail was distributed to a 96-well plate and incubated with either vehicle (total binding), unknown sample (10 µM final concentration), or a saturating concentration (10 µM) of the known competitive ligand methyllycaconitine to determine the nonspecific binding. The radioligand (±)-[^3H]-epibatidine (Perkin Elmer, 5 nM final concentration) was added to each well with varying the concentrations of competing ligand and allowed to incubate at room temperature for 1 hr. Plates were read on a 1450 MicroBeta TriLux liquid scintillation counter (Wallac) and the output normalized. All measurements were conducted in duplicate a minimum of 3 times. The IC50 values were calculated using GraphPad Prism version 4.02 (GraphPad Software, 2006, San Diego, CA, USA, www.graphpad.com).

[2] = molecular target: T2, A. californica BP Y55W mutant (Aplysia californica, UniProt Q8WSF8, Y72W); test: [3H]-epibatidine scintillation proximity binding assay, Ac AChBP Y55W mutant; conditions: inhibition of [3H]-epibatidine binding; read-out: IC50 ± SEM, Ac BP Y55W
T2 construct: made in house
Method: as §1

[3] = molecular target: T3, Lymnaea stagnalis AChBP (Lymnaea stagnalis, UniProt P58154); test: [3H]-epibatidine scintillation proximity binding assay, Ls AChBP; conditions: inhibition of [3H]-epibatidine binding; read-out: IC50 ± SEM, Ls BP
T3 construct: made in house
Method: as §1

[4] = molecular target: T4, rat brain α7 nAChR (Rattus norvegicus, UniProt Q05941); test: [125I]-α-BTX displacement, rat brain membranes; assay type: binding
T4 construct: from tissue; host or cells: whole rat brain membranes

[5] = molecular target: T5, Torpedo electric organ muscle type nAChR (Tetronarce californica, UniProt P02710+P02714+P02718); test: [125I]-α-BTX displacement, Torpedo electric organ membranes; assay type: binding
T5 construct: from tissue; host or cells: Torpedo californica electric organ washed membranes

[6] = molecular target: T6, rat brain α4β2 nAChRs (Rattus norvegicus, UniProt P09483+P12390); test: [3H]-cytisine displacement, rat brain membranes; assay type: binding
T6 construct: from tissue; host or cells: whole rat brain membranes
Method: Rat brain membranes (100 μg of protein) expressing […] α4β2 nAChRs were incubated with 0.5 nM [^3H]-cytisine in a final volume of 500 µL binding saline for 4 h at 5 °C. […] Ten different concentrations of the experimental compound were usually tested in quadruplicate. Nonspecific binding was measured in the presence of 1 mM (S)-nicotine hydrogen tartrate (Sigma-Aldrich). Data were fitted using GraphPad Prism software (Version 4 GraphPad Software, San Diego, CA, USA) by nonlinear regression analyses to a sigmoidal one-site model with variable slope.

[7] = molecular target: T7, human α4β2 nAChRs expressed in TsA201 cells (Homo sapiens, UniProt P17787+P43681); test: FlexStation membrane potential functional assay; assay type: cell-based; conditions: for activation (membrane depolarization) of human α4β2 nAChRs: MeNTX up to 300 µM, relative to 5 µM ACh; for inhibition of ACh activation of human α4β2 nAChRs: response to 5 μM acetylcholine
T7 construct: expressed in transfected cells; host or cells: TsA201 cells
Method: TsA201 cells expressing human α4β2 were maintained in media consisting of Dulbecco’s Modified Eagle medium supplemented with 10% FBS, 100 units/mL penicillin and 100 μg/mL streptomycin, 2 mM L-glutamine, 0.5 mg/mL zeocin, and 0.6 mg/mL geneticin. Cells were grown in 75 cm^2 culture flasks, which were housed in a humidified incubator (Fisher Scientific, Atlanta, GA, USA at 37 °C in an atmosphere of 5% CO2. They were grown to around 80–90% confluence after harvesting with 0.25% trypsin and being split weekly at a subcultivation ratio of between 1:6 and 1:10.
Our experimental protocol was based on the initial study of Fitch et al.. Cells were seeded at a density of roughly 5 × 10^4 to 10^5 cells/well in 96-well flat-bottom black wall culture plates coated with 50 μg /mL poly-D-lysine hydrobromide (Sigma-Aldrich, 70–150 kDa) and grown overnight in 100 μL culture medium. A proprietary membrane potential dye obtained from Molecular Devices (San Diego, CA, USA) was prepared by dissolving one bottle of dye into 30 mL of Hanks Saline (pH = 7.4) containing 20 mM HEPES buffer. The cells were incubated with 100 μL of dye for 30 min at 37 °C prior to the robotically controlled concentration-response experiment. Serial dilutions of a compound for dose-response analysis were prepared in 96-well plates by evaporation of a methanolic stock solution and then reconstituted in the appropriate volume of Hanks saline. Fluid transfer and readings were performed by a FlexStation fluorimeter (Molecular Devices). Excitation and emission wavelengths were set to 530 nm and 565 nm with a cutoff of 550 nm. The first 17 s were used as a basal reading.

[8] = molecular target: T8, L. stagnalis AChBP C187S mutant (Lymnaea stagnalis, UniProt P58154, C206S); test: [3H]-epibatidine scintillation proximity binding assay, Ls AChBP C187S mutant; conditions: for IC50: inhibition of [3H]-epibatidine binding
T8 construct: made in house
Method: as §1

[9] = test system: molluscan AChBPs; test: Preincubation with toxin before [3H]-epibatidine addition, AChBPs; assay type: binding
Method: as §1

[10] = test system: phencyclidine binding site of Torpedo nAChR ion channel; test: [3H]-TCP binding to Torpedo membranes; conditions: results not shown
Text: We have not yet deciphered the mechanism by which this small molecule can be an nAChR antagonist. […] We did observe that NTX inhibited [^3H]-TCP (radiolabelled analog of phencyclidine) binding to the Torpedo membranes, but this only occurred at NTX concentrations that were ~10X higher than were required to inhibit α-BTX binding (results not shown). Since most competitive antagonists are relatively large rigid molecules, elucidating the molecular mechanism by which NTX, an extremely small molecule, acts as an nAChR antagonist merits further investigation.

[11] = parameters: method as in earlier work; conditions: cited from earlier work
[12] = rat brain membranes, [125I]-α-BTX displacement, mean of n experiments, read-out: IC50 ± SEM, α7
[13] = [125I]-α-BTX displacement, mean of n experiments, read-out: IC50 ± SEM, Torpedo electric organ
[14] = rat brain membranes, [3H]-cytisine displacement, mean of n experiments, read-out: IC50 ± SEM, α4β2
[15] = single [125I]-αBTX displacement experiment
[16] = single [125I]-αBTX displacement experiment, read-out: α7 IC50 (representative experiment, Figure 6)
[17] = Torpedo IC50 (single experiment, Figure 7 left), 30 min preincubation before BTX
[18] = single [3H]-cytisine displacement experiment
[19] = single [3H]-cytisine displacement experiment, read-out: α4β2 IC50 (individual experiment, Figure 3)

SMILES	IC50 [1]	IC50 [2]	IC50 [3]	IC50 [4, 12]	IC50 [5, 13]	IC50 [6, 14]	affinity of Aplysia californica AChBP less than for NTX ([1]; MeNTX versus NTX)	activation (membrane depolarization) of human α4β2 nAChRs [7]	inhibition of ACh activation of human α4β2 nAChRs [7]	affinity of Ls C187S mutant greater than for NTX ([8]; MeNTX versus NTX)	IC50 [8]	effect of 24 hr preincubation on inhibition of [3H]-epibatidine binding [9]	α7 Hillslope (representative experiment, Figure 6) [4, 15]	IC50 [4, 16]	IC50 [5, 17]	α4β2 Hillslope (individual experiment, Figure 3) [6, 18]	IC50 [6, 19]	NTX concentrations inhibiting [3H]-TCP binding, higher than required to inhibit α-BTX binding [10]	dimethylamino pKa [11]
CN(C)C1CSCSC1 [DMA-DT, 5-dimethylamino-1,3-dithiane]	28 ± 0.27 µM	41.4 ± 4.4 µM	22 ± 2.4 µM	640 ± 220 µM	> 500 µM	160 ± 96 µM													
C[N+](C)(C)C1CSSC1 [MeNTX, N-methylnereistoxin]	260 ± 71 µM	74 ± 5.2 µM	163 ± 8.7 µM	45 ± 2.3 µM	9.3 ± 4.9 µM	120 ± 13 µM	~ 3.5 fold	failed to activate	inhibited ACh activation	~ 4 fold	41 µM	failed to detect any effect	-1.0	89.4 µM	11.2 µM	-1.5	121 µM		
CN(C)C1CSSC1 [NTX, 4-dimethylamino-1,2-dithiolane, reference compound]	71 ± 1.9 µM	110 ± 25 µM	140 ± 24 µM	390 ± 8.6 µM	230 ± 71 µM	60 ± 22 µM		no measurable depolarizing activity	inhibited ACh activation		160 µM	failed to detect any effect	-2.6	826 µM	254 µM	-1.5	81.6 µM	~ 10 X	7.2
C[N+](C)(C)C1CSCSC1 [TMA-DT, 5-trimethylamino-1,3-dithiane]	20 ± 2 µM	18 ± 2.8 µM	3.7 ± 0.39 µM	90 ± 4.3 µM	150 µM	290 ± 60 µM													
